# Test results published in US10350240B2, “Lanthanum carbonate hydroxide, lanthanum oxycarbonate and methods of their manufacture and use” (Spectrum Pharmaceuticals, Inc., priority 2010, dated 2019).
# Columns and labels:
# Bulk density = type: physicochemical; settings: Renazorb-013 (LCH), second block
# Description: Bulk density in accordance with the invention can be determined by standard methods.
# Graduated Cylinder Tare Weight was determined to be 225 g. 75 grams of sample was sieved into the graduated cylinder. The Gross Weight was determined to be 299.4 g. The volume of this sample was measured to be 141 mL. Thus, the Bulk Density of the powder is: Bulk Density (g/cc)=(299.4−225)/141=74.4/141=0.5277 g/cc Rounding this value to two decimal places gives a final reported value of 0.53 g/cc. 9.2 RSD=(R1−R2)×100/R1 where: RSD=Relative Standard Deviation (%) R1 & R2=Result of individual repeat (g/cc) 9.3 SR=R×100/V where: SR=Standard Recovery (%) R=Result for Reference Standard (g/cc) V=Historical average for standard (g/cc)
# BET surface area = type: physicochemical; settings: for BET surface area of the material tested: material tested in FIG. 10; for Surface Area, BET Surface area (m^2/g): nitrogen adsorbate
# Description: (§1) By “relatively greater” it is meant that if the processes of the '782 patent and those of the present invention were run under generally identical conditions but with, for example, ammonium carbonate or bicarbonate used instead of sodium carbonate, the surface area, as measured by BET or otherwise, of the LCH or lanthanum oxycarbonates of the present invention would be even higher than that resulting from the practice of the '782 patent. The ammonium carbonate process of the present invention should yield BET surface areas (SA) in the 1 to 100 m^2/g range for LCH. […] To this end, as used herein “relatively greater BET surface area” refers to the greater BET surface area of the LDOC compound of the present invention when compared to the respective compound in U.S. Pat. No. 7,588,782 when made using similar ingredients, and under similar conditions but using the process described in that patent. As noted above, both processes are capable of producing very fine particles/high surface area. Again without wishing to be bound by any particular theory of operation, it may be that the greater porosity of the materials resulting from the present invention may effectively increase the overall surface area (or more reactive surfaces) allowing for, inter alia, improved binding kinetics. This is predicated on the porosity of individual or primary particles, not aggregates. Thus, it is believed that the primary particles of the invention provide relatively greater porosity than would be measured for particles made in accordance with the '782 patent. […] Furthermore, “porosity” as used herein means cumulative adsorption pore volume determined using a static pressure surface area analyzer with nitrogen as the adsorbate and calculating the pore size by The Barrett, Joyner, and Halenda (BJH) method (Barrett E. P., Loyner L. G. and Halenda P. P., The determination of pore volume and area distributions in porous substances. I. Computations from nitrogen isotherms, J. Am. Chem. Soc. 73 (1951) pp. 373-380).
# As contemplated herein, BET surface area of the lanthanum compounds disclosed herein may be determined as provided in U.S. Pat. No. 7,588,782.
# [1] = Phosphate binding kinetics at constant pH, ICP-OES (FIG. 10); settings: for phosphate binding at a pH of 3 or below: comparison of both LDOC materials; for amount of phosphate bound in 60 minutes: pH of about 6.5, 60 minutes, FIG. 10
# Description: FIG. 10 provides a graphical representation of the binding kinetics of LCH and a lanthanum oxycarbonate in accordance with the '782 patent (RZB-011, RZB-012), and LCH/La2O2CO3 produced in accordance with the present invention (RZB-013 and RZB-014) at 10, 20, 30, 40, […]
# It is preferred that the amount of polymorph 037-0804 exceeds that of any other polymorph by weight. In one embodiment, the amount of polymorph 037-0804 is more than 50% of all polymorphs present and, in another embodiment, at least 90% of the polymorphs present of LDOC is La2O2CO3. In another embodiment, polymorph 037-0804 (La2O2CO3) is present in an amount of at least 95% by weight relative to other polymorphs and in still another embodiment, at least 99% by weight. It has also been determined that the phosphate binding kinetic of LDOC resulting from the present invention versus LDOC resulting from the process of the '782 patent are different as well. […] In one embodiment, therefore, the lanthanum oxycarbonate and, in another embodiment, the LDOC of the inventions have a binding kinetic at pH 6.5 at 60 minutes, of at least 150 mg PO4 per gram of lanthanum oxycarbonate/LDOC. In another embodiment, the lanthanum oxycarbonate and LDOC of the invention have a binding kinetic of at least about 180 mg PO4 per gram compound and in still a further embodiment, at least about 200 mg PO4 per gram compound. The BET surface area of the material tested was 6-7 m^2/g for RZB012 (lanthanum oxycarbonate in accordance with the '782 patent) and was about 33.9 for La2O2CO3 in accordance with the invention. Moreover, it is believed that the porosity, bulk density and flow characteristics of LDOC made in accordance with the present invention surpassed those made in accordance with the teachings of the '782 patent.
# Phosphate binding kinetics and binding capacity as illustrated in FIG. 10 as described herein (particularly with regard to RZB-012) can be measured as follows:
# Stock phosphate solution (0.00527 mol PO43—per Liter—500 mg PO43—per Liter)
# 3. Using a graduated cylinder measure out 1.0 L of the stock phosphate solution
# 4. Add the phosphate solution to a 1.5 L Pyrex beaker. The beaker should be sufficiently large to contain the phosphate solution and allow for a 30% volume increase
# 5. Run at ambient […] or 37° C. as indicated in the analytical request. If 37° C. is requested place the 1.5 L beaker containing the 1.0 L of test solution on a temperature controlled hot plate. Set temperature to 37° C. […] 6. Stir the solution constantly using an electric stirrer equipped with an impeller. Stir rate should be […] (verify with tachometer). 7. Using a 10 ml syringe remove 5 mls of solution and dispense it into a labeled sample tube. This is the T=0 sample 8. […]
# [2] = Porosity (BJH pore volume, pore size; nitrogen adsorption, Micromeritics TriStar 3000); type: physicochemical; settings: for Pore Size, Adsorption pore diameter (nm): BJH adsorption; for Pore volume, Adsorption (cumulative) (cm^3/g) / Surface Area, Adsorption (cumulative) (m^2/g): BJH adsorption cumulative; for Pore Size, Desorption pore diameter (nm): BJH desorption; for Pore volume, Desorption (cumulative) (cm^3/g) / Surface Area, Desorption (cumulative) (m^2/g): BJH desorption cumulative; for Pore volume, Total-<6.4182 nM (cm^3/g): pores <6.4182 nM
# Description: as §1
# “Pore volume” as used herein refers to the cumulative adsorption pore volume. In one embodiment, the cumulative adsorption pore volume of the LDOC of the present invention is at least 0.015 cm^3/g. In another embodiment, it is at least 0.020 cm^3/g.
# The porosity of the LDOC compound referred to herein as RZB-014 was analyzed and compared to that of the LDH and LDOC compounds of the '782 patent discussed above on a Micromeritics TriStar 3000 static pressure surface area analyzer using nitrogen as the adsorbate. The Barrett, Joyner, and Halenda (BJH) method was used to calculate pore size. This method uses the Kelvin model of pore filling and applies only to the mesopore (internal width between approximately 2 and 50 nm) and small macropore size range (internal width between 50 nm and approximately 300 nm).
# [3] = at 10 minutes, pH 3, FIG. 20 of the '782 patent; cited from earlier work
molecule,measurement,setting,value
"O=C([O-])[O-].[La+3].[OH-] [Batch 101008, lanthanum carbonate hydroxide]",Bulk Density,Bulk density,0.15 g/cc
same,Surface Area,"BET surface area; Renazorb-013 (LCH), second block of experiments",14.3 m^2/g
"lanthanum oxycarbonate [RZB-012, reference compound]",BET surface area of the material tested,BET surface area,6-7 m^2/g
same,phosphate binding at a pH of 3 or below,[1],about the same
same,amount of phosphate bound in 60 minutes,[1],about 118 mg PO4 bound per gram of compound
same,pore diameter comparison,[2],not much difference in the values of pore diameter
lanthanum tricarbonate tetrahydrate,percent of the available phosphate bound,[3],about 40%
O=C([O-])[O-].[La+3].[La+3].[O-2].[O-2] [RZB-14 (264317)],"Surface Area, BET Surface area (m^2/g)",BET surface area,25.3032 m^2/g
same,"Pore Size, Average pore width (nm)",[2],4.699 nm
same,"Pore Size, Adsorption pore diameter (nm)",[2],5.5584 nm
same,"Pore volume, Adsorption (cumulative) (cm^3/g)",[2],0.03991 cm^3/g
same,"Surface Area, Adsorption (cumulative) (m^2/g)",[2],28.7342 m^2/g
same,"Pore Size, Desorption pore diameter (nm)",[2],4.8008 nm
same,"Pore volume, Desorption (cumulative) (cm^3/g)",[2],0.04068 cm^3/g
same,"Surface Area, Desorption (cumulative) (m^2/g)",[2],33.8946 m^2/g
same,"Pore volume, Total-<6.4182 nM (cm^3/g)",[2],0.02973 cm^3/g
O=C([O-])[O-].[La+3].[La+3].[O-2].[O-2] [RZB-14 (264314)],"Surface Area, BET Surface area (m^2/g)",BET surface area,32.0039 m^2/g
same,"Pore Size, Average pore width (nm)",[2],3.404 nm
same,"Pore Size, Adsorption pore diameter (nm)",[2],5.7595 nm
same,"Pore volume, Adsorption (cumulative) (cm^3/g)",[2],0.0499 cm^3/g
same,"Surface Area, Adsorption (cumulative) (m^2/g)",[2],34.6533 m^2/g
same,"Pore Size, Desorption pore diameter (nm)",[2],6.0183 nm
same,"Pore volume, Desorption (cumulative) (cm^3/g)",[2],0.05346 cm^3/g
same,"Surface Area, Desorption (cumulative) (m^2/g)",[2],35.5324 m^2/g
same,"Pore volume, Total-<6.4182 nM (cm^3/g)",[2],0.02724 cm^3/g
"O=C([O-])[O-].[La+3].[La+3].[O-2].[O-2] [RZB-014, Lanthanum dioxycarbonate]",BET surface area of the material tested,BET surface area,about 33.9 m^2/g
same,phosphate binding at a pH of 3 or below,[1],about the same
same,amount of phosphate bound in 60 minutes,[1],approximately 240 mg PO4 bound per gram of compound
same,pore diameter comparison,[2],not much difference in the values of pore diameter
same,pore volume compared with RZB-12 and RZB-11,[2]; both lots of RZB-14,much higher pore volumes than RZB-12 and slightly bigger pore volume than RZB-11
same,surface area compared with RZB-11 & 12,[2]; two lots of RZB-14,greater
"O=C([O-])[O-].[La+3].[OH-] [RZB-011, lanthanum carbonate hydroxide]",pore diameter comparison,[2],not much difference in the values of pore diameter
